Source: patent US6150414A, “Compositions and methods for treating viral infections” (priority 1992, dated 2000)
Where “and” joins values, the source holds several entries; their conditions need not be identical. Equal entries are not always repeated.

Experiments:
[1] = tested on: virus budding in virus-producing cells; test: In vitro inhibition of virus budding: production of defective budded virions (Example 10); assay type: cell-based; details: in vitro; Table IX; read-out: EC50 for production of defective budded virions
Description: The results presented above in Table IX are presented as EC50 concentrations. These are the effective concentrations which inhibit 50% of the viruses in micromolar concentrations.

[2] = target: T1, Radiation Leukemia Virus reverse transcriptase (Radiation murine leukemia virus, UniProt P11227); test: Radiation Leukemia Virus reverse transcriptase assay, supernatants from infected AQR cells (Examples 4 and 9); assay type: biochemical; details: Table VI; for CPM: replicate, listed as Hy
T1 construct: the reverse transcriptase of Radiation Leukemia Virus; endogenous in cells
Outline: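 Supernatants from AQR cells chronically infected with RadLV were incubated 30 min on ice with the test compound (hypericin, protohypericin or HHA). Virus was pelleted at 100,000×g for 1 h at 4 °C, and the pellet was assayed for reverse transcriptase activity.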

retroviruses = test: Comparison over two in vitro and one in vivo biological assays (Example 10); details: Example 10
Outline: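 In vitro direct inactivation of retroviruses was tested alongside in vivo inhibition of Friend Leukemia Virus splenomegaly in mice. For the in vivo test, compounds were given intravenously 1-2 hours post infection.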

Q: What does the source list for `Cc1cc(O)c2c(=O)c3c(O)cc(O)c4c5c(O)cc(O)c6c(=O)c7c(O)cc(C)c8c1c2c(c34)c(c78)c65` [hypericin, Hypericin]?
A: EC50 [1]: 200 nM; Average CPM ([2]; 0.4 micrograms): 2,489 CPM; Average percent inhibition ([2]; 0.4 micrograms): 99.4%; CPM ([2]; 0.4 micrograms): 1,700 CPM and 3,278 CPM; Average CPM ([2]; 2 micrograms): 9,986 CPM; Average percent inhibition ([2]; 2 micrograms): 97.8%; CPM ([2]; 2 micrograms): 14,474 CPM and 5,498 CPM; Average CPM ([2]; 10 micrograms): 11,588 CPM; Average percent inhibition ([2]; 10 micrograms): 97.4%; CPM ([2]; 10 micrograms): 9,288 CPM and 13,888 CPM; Average CPM ([2]; 50 micrograms): 31,818 CPM; Average percent inhibition ([2]; 50 micrograms): 92.9%; CPM ([2]; 50 micrograms): 33,948 CPM and 29,688 CPM; Average CPM ([2]; 100 micrograms): 31,347 CPM; Average percent inhibition ([2]; 100 micrograms): 93.0%; CPM ([2]; 100 micrograms): 28,946 CPM and 33,748 CPM; activity across assays (retroviruses): high degree of activity in a more than one assay
